How the values were obtained:
c-Src kinase domain [1] = target: T1, c-Src kinase domain (Homo sapiens, UniProt P12931); assay: ADP-Quest continuous fluorimetric kinase assay (Michaelis-Menten parameters and initial rates); assay type: biochemical; details: c-Src kinase domain 10 nM, 100 μM ATP, 37 °C, three to five replicates, error = standard error of global Michaelis-Menten fit
Source text: (§1) A fluorescence-based assay from Eurofins (ADP Quest) was used to measure the Michaelis-Menten kinetic parameters for phosphorylation of the consensus peptides by purified tyrosine kinase domains. In this assay, ADP production as a result of kinase activity is coupled to the production of resorufin, a fluorophore that emits signal at 590 nm. For all experiments, the assay reactions were set up as described in the provided assay kit protocol, in a 384 well plate format. The peptide solutions were serially diluted in 100 mM Tris, pH 8.0, and the kinases were diluted to 50 nM in buffer (10 mM HEPES, 100 mM NaCl, 1 mM TCEP, 5 mM MgCl2, 10% (v/v) glycerol). The final reaction mixtures contained 10 nM of kinase with 100 μM of ATP. Reactions were initiated with the addition of 1 mM ATP into a 50 μL reaction mixture for a final concentration of 100 μM ATP. Phosphorylation reaction progress was monitored by measuring fluorescence at excitation 530 nm and emission 590 nm every 2 min at 37 °C on a plate reader (BioTek Synergy Neo 2). The fluorescence units (RFU) were converted to μM ADP by comparison to a standard curve, and the initial rates were extracted from the linear regime of the reaction progress curves. Initial rates were also measured for samples containing each kinase but lacking a peptide substrate, to account for background ATP hydrolysis. This background rate was subtracted from the rates measured in the presence of peptide. The subtracted rates were plotted as a function of substrate concentration and fit to the Michaelis-Menten equation to extract kcat and KM values.

c-Abl kinase domain = target: T2, c-Abl kinase domain (Mus musculus, UniProt P00520); assay: as above; assay type: biochemical; details: c-Abl kinase domain 10 nM, 100 μM ATP, 37 °C, three to five replicates, error = standard error of global Michaelis-Menten fit
T2 sequence (P00520 242-493 limits assumed): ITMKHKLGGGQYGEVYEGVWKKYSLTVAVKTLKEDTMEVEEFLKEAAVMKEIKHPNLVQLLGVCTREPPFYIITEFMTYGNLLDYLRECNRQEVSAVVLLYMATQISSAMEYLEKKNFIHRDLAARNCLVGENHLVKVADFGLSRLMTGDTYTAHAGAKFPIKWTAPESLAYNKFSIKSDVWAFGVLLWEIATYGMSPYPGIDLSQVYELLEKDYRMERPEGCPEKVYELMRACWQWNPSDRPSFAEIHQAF
Source text: as §1

EPHB2 kinase domain = assay: ADP-Quest continuous fluorimetric kinase assay (initial rates of consensus peptides); assay type: biochemical, human; details: peptide 100 μM, kinase 10–50 nM; Figure 2C
Source text: as §1, with “Reactions were initiated with the addition of 1 mM ATP into a 50 μL reaction mixture for a final concentration of 100 μM ATP.” left out, “The subtracted rates were plotted as a function of substrate concentration and fit to the Michaelis-Menten equation to extract kcat and KM values.” left out

c-Src kinase domain [2] = target: T1, c-Src kinase domain; assay: RP-HPLC assay to measure peptide phosphorylation kinetics; assay type: biochemical; details: purified peptide substrate

| Substance | Km (c-Src kinase domain [1]) [µM] | kcat (c-Src kinase domain [1]) [s^–1] | Km (c-Abl kinase domain) [µM] | kcat (c-Abl kinase domain) [s^–1] | phosphorylation of consensus peptide by EPHB2 (initial rate relative to cognate consensus) (EPHB2 kinase domain) | Phosphorylation Rate (c-Src kinase domain [2]) [s⁻¹] |
| --- | --- | --- | --- | --- | --- | --- |
| Ac-GPDEPIYAVPPIKKKG-NH2 [Abl Consensus, c-Abl consensus substrate peptide from X5-Y-X5 screen] | 159 ± 31 | 2.0±0.2 | 6 ± 2 | 3.0±0.2 | efficiently phosphorylated | – |
| Ac-VASSLYDILAR-NH2 [GLB1_Y294] | – | – | – | – | – | 0.892 |

From article PMC10065799, “High-throughput profiling of sequence recognition by tyrosine kinases and SH2 domains using bacterial peptide display” (eLife, 2023)
